Laboratory results as given in patent US4166859A, “2-Bromo-6-fluoro-N-(2-imidazolidinylidene)-benzamine and salts thereof and the use to treat hypertension” (Boehringer Ingelheim GmbH, priority 1976, dated 1979).
Where a name gives a salt, the structure may show the parent alone.

Key:
[1] = Hygroscopicity of acid addition salts; format: physicochemical
[2] = system: blood pressure; test: Hypotensive activity (blood pressure reduction) in rabbits under urethane anesthesia, i.v.; format: in vivo; settings: for ED (20 mm Hg): Oryctolagus cuniculus, iv, urthane anesthesia, dose producing lasting reduction of 20 mm Hg of blood pressure, arteria carotis, read-out: Hypotensive ED20 in rabbits
Procedure: The hypotensive activity of the test compounds was determined on a statistically significant number of rabbits under urthane anesthesia. The blood pressure of the test animals was continuously measured in the arteria carotis by means of a mercury manometer before and after the i.v. administration of the test compound at varying dosage levels. The ED20 was determined, that is, the dose which produced a lasting reduction of 20 mm Hg of the blood pressure.

[3] = Stomach juice secretion inhibition, method of Shay et al; settings: rat, in vivo; dose reducing volume of stomach juice secreted by 50% and total acidity by 50%; measure of dryness of the mouth; read-out: Stomach juice secretion inhibiting ED50 in rats
Procedure: The effect on the stomach juice secretion was determined on rats by the standard test method of Shay et al, Gastroenterology 5, 43 (1943), and the ED50 was calculated for each test compound, that is, the dose which reduces the volume of stomach juice secreted over a given amount of time by 50%, and at the same time produces a 50% reduction in the total acidity of the secreted stomach juice volume.

[4] = pKa-value; format: physicochemical

## Fc1cccc(Br)c1N=C1NCCN1 [Nitrate]
[1]
  hygroscopicity: slightly hygroscopic

## Clc1cccc(Cl)c1NC1=NCCN1 [clonidine, 2-(2,6-dichloroanilino)-2-imidazoline]
[2]; comparison with 2-bromo-6-fluoro-N-(2-imidazolidinylidene)-benzamine
  antihypertensive efficacy relative to the invention compound: equal antihypertensive efficacy

## Clc1cccc(Cl)c1NC1=NCCN1 [Clonidine . HCl, 2-(2,6-dichloroanilino)-2-imidazoline, reference compound]
[3]
  ED50: 0.04 mg/kg
[2]
  ED (20 mm Hg): 0.01 mg/kg

## Fc1cccc(Br)c1N=C1NCCN1 [Benzoate]
[1]
  hygroscopicity: slightly hygroscopic

## Fc1cccc(Br)c1N=C1NCCN1 [Tosylate]
[1]
  hygroscopicity: hygroscopic

## Fc1cccc(Br)c1N=C1NCCN1 [Citrate]
[1]
  hygroscopicity: hygroscopic

## Fc1cccc(Br)c1N=C1NCCN1 [Methanesulfonate]
[1]
  hygroscopicity: hygroscopic

## Fc1cccc(Br)c1N=C1NCCN1 [Hydrobromide]
[1]
  hygroscopicity: hygroscopic

## Fc1cccc(Br)c1N=C1NCCN1 [Oxalate]
[1]
  hygroscopicity: hygroscopic

## Fc1cccc(Br)c1N=C1NCCN1 [Tartrate]
[1]
  hygroscopicity: hygroscopic

## Fc1cccc(Br)c1NC1=NCCN1 [2-bromo-6-fluoro-N-(2-imidazolidinylidene)-benzamine monohydrochloride]
[3]
  ED50: 0.1 mg/kg
[2]
  ED (20 mm Hg): 0.01 mg/kg
[4]
  pKa: 8.2
